Measured values reported in US10364247B2, “Preparation and use of novel protein kinase inhibitors” (Ruijin Hospital Affiliated to Shanghai Jiao Tong University …, priority 2015, dated 2019).

What was measured:
Type in all cases: cell-based, murine
BaF3-TEL-LYN = target: T1, BaF3-TEL-LYN (Homo sapiens, UniProt P07948); assay: Antiproliferative activity, kinase-dependent Ba/F3 cells (MTT/MTS); details: 48 hours, cell viability, read-out: tel-LYN IC50
T1 construct: fused on or other part: P41212 (Transcription factor ETV6)
T1 sequence (P07948 whole entry, change not shown, the tested form may be a part): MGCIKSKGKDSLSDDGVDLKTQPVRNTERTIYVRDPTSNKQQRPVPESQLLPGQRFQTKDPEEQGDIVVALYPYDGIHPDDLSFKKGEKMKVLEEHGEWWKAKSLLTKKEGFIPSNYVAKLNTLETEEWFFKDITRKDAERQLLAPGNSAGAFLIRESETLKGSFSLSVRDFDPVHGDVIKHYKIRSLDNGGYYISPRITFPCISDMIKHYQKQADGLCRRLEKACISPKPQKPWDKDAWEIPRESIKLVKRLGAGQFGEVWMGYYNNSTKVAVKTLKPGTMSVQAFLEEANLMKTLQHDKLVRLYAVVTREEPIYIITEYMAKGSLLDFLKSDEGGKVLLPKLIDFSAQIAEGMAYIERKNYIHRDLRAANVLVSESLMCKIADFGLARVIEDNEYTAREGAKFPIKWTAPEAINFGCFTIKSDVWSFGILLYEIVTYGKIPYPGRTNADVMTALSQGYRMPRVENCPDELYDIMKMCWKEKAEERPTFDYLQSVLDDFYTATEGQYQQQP
Protocol: (§1) Following up on the kinome data, the ability of compounds disclosed in the present invention to inhibit proliferation of cells that are dependent on selected protein kinases was tested. […] In addition, compounds were assayed to measure their capacity to inhibit TIE1, LYN, EML4-ALK, INSR and HCK kinases.
(§2) The murine cell line used is the BaF/3 cell line transformed with BCR/ABL cDNA (BaF/3-p210) or BCR/ABL-T315I mutant (Ba/F3-p210-T315I). These cells are maintained in RPMI/10% fetal calf serum (RPMI/FCS) supplemented with penicillin 50 μg/mL, streptomycin 50 μg/mL and L-glutamine […]. Untransformed BaF/3 cells (Wt-BaF/3) are similarly maintained with the addition of 15% of WEHI conditioned medium as a source of IL3.
(§3) Cells were seeded at a density of 20,000 cells/well into 96-well plates.
(§4) The background control wells to which media with no cells added and the vehicle control wells were included on each plate in triplicate. Cell viability was determined using MTT (Sigma, St. Louis, Mo., USA) and MTS (Promega, Madison, Wis., USA), according to the manufacturer's instructions. Results were analyzed using GraphPad Prism 5.0 (GraphPad Software, San Diego, Calif.) and IC50 values were calculated from cell viability dose-response curves and defined as the concentration of compound needed to reduce cell viability to 50% of a vehicle control (DMSO) (Table 3).
(§5) Cell proliferation assays of compounds of the invention against TIE1, LYN, EML4-ALK, INSR and Hck were conducted using identical methods as described above for BCR/ABL, except that BaF3-TEL-TIE1, BaF3-TEL-LYN, BaF3-EML4-ALK, BaF3-TEL-INSR, and BaF3-TEL-HCK are used instead of BaF3-BCR/ABL (Table 3 and 4).

BaF3-TEL-HCK = target: T2, BaF3-TEL-HCK (Homo sapiens, UniProt P08631); assay: as above; details: 48 hours, cell viability, read-out: Tel-HCK IC50
T2 construct: fused on or other part: P41212 (Transcription factor ETV6)
T2 sequence (P08631 whole entry, change not shown, the tested form may be a part): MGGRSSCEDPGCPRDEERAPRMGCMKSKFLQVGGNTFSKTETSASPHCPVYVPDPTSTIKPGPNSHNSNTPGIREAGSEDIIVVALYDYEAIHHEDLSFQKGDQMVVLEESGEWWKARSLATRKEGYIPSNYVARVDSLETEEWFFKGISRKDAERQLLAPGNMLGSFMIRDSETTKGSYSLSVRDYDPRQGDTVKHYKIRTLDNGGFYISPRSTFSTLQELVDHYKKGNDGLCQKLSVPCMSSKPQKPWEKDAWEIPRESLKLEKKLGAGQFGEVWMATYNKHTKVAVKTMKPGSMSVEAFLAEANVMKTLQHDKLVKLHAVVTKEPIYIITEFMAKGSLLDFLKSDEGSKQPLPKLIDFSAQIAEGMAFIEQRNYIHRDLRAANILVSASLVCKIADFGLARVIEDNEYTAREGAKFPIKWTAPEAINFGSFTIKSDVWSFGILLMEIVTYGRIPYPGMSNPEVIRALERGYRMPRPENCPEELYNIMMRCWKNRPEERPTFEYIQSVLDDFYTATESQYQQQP
Protocol: as §1, §2, §3, §4, §5

BaF3-TEL-INSR = target: T3, BaF3-TEL-INSR (Homo sapiens, UniProt P06213); assay: as above; details: 48 hours, cell viability, read-out: Tel-INSR IC50
T3 construct: fused on or other part: P41212 (Transcription factor ETV6)
T3 sequence (P06213 whole entry, stated change not applied, the tested form may be a part): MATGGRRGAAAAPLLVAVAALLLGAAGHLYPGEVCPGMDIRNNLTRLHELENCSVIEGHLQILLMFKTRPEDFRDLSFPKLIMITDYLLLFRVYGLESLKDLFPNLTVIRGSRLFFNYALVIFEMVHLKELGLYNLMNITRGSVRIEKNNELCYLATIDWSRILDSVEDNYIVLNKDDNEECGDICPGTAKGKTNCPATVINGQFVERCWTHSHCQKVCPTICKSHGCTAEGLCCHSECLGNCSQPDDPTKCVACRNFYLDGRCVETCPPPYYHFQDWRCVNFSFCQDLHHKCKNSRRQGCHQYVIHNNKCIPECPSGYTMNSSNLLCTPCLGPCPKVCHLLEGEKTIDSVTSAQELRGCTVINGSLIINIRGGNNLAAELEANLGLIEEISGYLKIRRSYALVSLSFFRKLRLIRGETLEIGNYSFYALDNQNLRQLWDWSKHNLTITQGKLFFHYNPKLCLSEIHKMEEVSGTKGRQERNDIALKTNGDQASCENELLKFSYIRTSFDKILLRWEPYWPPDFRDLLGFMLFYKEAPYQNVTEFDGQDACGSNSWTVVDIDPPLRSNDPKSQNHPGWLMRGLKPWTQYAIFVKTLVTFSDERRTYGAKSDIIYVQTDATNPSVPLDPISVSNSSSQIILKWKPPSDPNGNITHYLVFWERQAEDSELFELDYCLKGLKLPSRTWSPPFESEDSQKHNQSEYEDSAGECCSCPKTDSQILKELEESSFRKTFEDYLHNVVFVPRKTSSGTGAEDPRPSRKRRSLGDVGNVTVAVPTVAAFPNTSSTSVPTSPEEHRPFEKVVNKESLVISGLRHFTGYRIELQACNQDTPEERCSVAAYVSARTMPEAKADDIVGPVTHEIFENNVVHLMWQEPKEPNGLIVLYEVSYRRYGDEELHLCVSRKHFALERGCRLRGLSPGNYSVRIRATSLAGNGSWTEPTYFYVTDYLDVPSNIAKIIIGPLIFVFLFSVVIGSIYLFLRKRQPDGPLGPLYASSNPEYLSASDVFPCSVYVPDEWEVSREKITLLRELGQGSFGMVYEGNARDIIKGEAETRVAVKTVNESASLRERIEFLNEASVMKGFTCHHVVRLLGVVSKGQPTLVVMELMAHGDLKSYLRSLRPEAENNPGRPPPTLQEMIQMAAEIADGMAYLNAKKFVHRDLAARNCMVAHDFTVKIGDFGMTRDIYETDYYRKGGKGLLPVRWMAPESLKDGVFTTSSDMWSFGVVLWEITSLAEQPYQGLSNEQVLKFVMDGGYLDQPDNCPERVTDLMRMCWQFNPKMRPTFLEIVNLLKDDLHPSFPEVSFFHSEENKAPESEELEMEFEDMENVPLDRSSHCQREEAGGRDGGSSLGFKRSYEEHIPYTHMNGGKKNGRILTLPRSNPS
Protocol: as §1, §2, §3, §4, §5

BaF3-EML4-ALK = target: T4, BaF3-EML4-ALK (Homo sapiens, UniProt Q9UM73); assay: as above; details: 48 hours, cell viability, read-out: EML4-ALK IC50
T4 construct: fused on or other part: Q9HC35 (Echinoderm microtubule-associated protein-like 4)
Protocol: as §1, §2, §3, §4, §5

BaF3-TEL-TIE1 = target: T5, BaF3-TEL-TIE1 (Homo sapiens, UniProt P35590); assay: as above; details: 48 hours, cell viability, read-out: tel-TIE1 IC50
T5 construct: fused on or other part: P41212 (Transcription factor ETV6)
T5 sequence (P35590 whole entry, change not shown, the tested form may be a part): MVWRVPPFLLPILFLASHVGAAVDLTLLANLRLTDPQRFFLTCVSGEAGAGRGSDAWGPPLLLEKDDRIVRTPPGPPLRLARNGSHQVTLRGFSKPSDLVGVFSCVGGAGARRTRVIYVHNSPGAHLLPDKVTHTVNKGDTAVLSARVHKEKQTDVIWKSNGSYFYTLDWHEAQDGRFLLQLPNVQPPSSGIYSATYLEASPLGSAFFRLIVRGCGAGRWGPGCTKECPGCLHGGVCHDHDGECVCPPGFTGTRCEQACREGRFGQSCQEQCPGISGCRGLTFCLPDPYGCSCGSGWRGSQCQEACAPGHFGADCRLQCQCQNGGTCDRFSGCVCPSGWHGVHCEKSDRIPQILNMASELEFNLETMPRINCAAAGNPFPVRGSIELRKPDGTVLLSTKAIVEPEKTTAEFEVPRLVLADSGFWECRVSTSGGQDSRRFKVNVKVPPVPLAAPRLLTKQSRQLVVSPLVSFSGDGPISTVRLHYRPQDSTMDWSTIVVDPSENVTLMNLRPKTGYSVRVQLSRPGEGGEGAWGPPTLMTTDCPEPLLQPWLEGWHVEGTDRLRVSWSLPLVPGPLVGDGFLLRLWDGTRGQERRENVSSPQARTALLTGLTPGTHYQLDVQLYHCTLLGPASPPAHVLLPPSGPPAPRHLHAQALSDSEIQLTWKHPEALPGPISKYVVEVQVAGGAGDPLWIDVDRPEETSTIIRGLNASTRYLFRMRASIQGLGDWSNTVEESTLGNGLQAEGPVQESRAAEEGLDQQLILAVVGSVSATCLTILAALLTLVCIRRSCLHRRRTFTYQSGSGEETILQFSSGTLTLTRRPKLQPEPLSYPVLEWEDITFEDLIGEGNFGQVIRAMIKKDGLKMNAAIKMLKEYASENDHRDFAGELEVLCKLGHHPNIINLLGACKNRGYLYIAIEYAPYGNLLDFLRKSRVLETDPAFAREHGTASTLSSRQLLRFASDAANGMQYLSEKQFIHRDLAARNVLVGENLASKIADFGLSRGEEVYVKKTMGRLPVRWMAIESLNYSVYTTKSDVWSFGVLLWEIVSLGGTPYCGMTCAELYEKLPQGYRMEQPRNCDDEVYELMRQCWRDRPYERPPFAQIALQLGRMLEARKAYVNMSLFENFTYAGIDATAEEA
Protocol: as §1, §2, §3, §4, §5

Wt-BaF3 = assay: Parental Ba/F3 cell proliferation (CellTiter Glo); details: Mus musculus, parental BaF/3 cells, 48 hours
Protocol: as §2
(§6) The BaF/3 cell line transformed with oncogenic NRAS or KRAS (BaF/3-NRASD12 or BaF/3-KRASD12) and the parental BaF/3 cells were used to measure the abilities of compounds of the invention to suppress RAS transformation (Table 5). Cells were seeded at a density of 5000 cells/well into 96-well plates. […] The background control wells to which media with no cells added and the vehicle control wells were included on each plate in triplicate. Cell viability was determined using CellTiter Glo Assay (Promega) according to manufacture's instruction with a minor modification of diluting 1 part CellTiter Glo reagent to 4 parts phosphate buffered saline (PBS) before use. The luminescence value was read out by an Envision (PerkinElmer).

BaF3-BCR/ABL = target: T6, BaF3-BCR/ABL (Homo sapiens, UniProt P00519); assay: Antiproliferative activity, kinase-dependent Ba/F3 cells (MTT/MTS); details: 48 hours, cell viability, read-out: BCR/ABL IC50
T6 construct: fused on or other part: P11274 (Breakpoint cluster region protein)
Protocol: as §1, §2, §3, §4

BaF3-BCR/ABL-T315I = target: T7, BaF3-BCR/ABL-T315I (Homo sapiens, UniProt P00519, T315I, cells depend on it); assay: as above; details: 48 hours, cell viability, read-out: BCR/ABL T315I IC50
T7 construct: fused on or other part: P11274 (Breakpoint cluster region protein)
Protocol: as §1, §2, §3, §4

BaF3-NRASD12 = assay: Oncogenic RAS dependent cell proliferation (CellTiter Glo); details: Mus musculus, BaF3-NRASD12 cells, 48 hours, read-out: NRas-BaF3 IC50
Protocol: as §6

BaF3-KRASD12 = assay: as above; details: Mus musculus, BaF3-KRASD12 cells, 48 hours, read-out: KRas-BaF3 IC50
Protocol: as §6

Row | Structure (SMILES) | GI50 (BaF3-TEL-LYN) [µM] | GI50 (BaF3-TEL-HCK) [µM] | GI50 (BaF3-TEL-INSR) [µM] | GI50 (BaF3-EML4-ALK) [µM] | GI50 (BaF3-TEL-TIE1) [µM] | IC50 (Wt-BaF3) [µM] | GI50 (BaF3-BCR/ABL) [µM] | GI50 (BaF3-BCR/ABL-T315I) [µM] | IC50 (BaF3-NRASD12) [µM] | IC50 (BaF3-KRASD12) [µM]
1 | Cc1cc(Nc2ncc3c(n2)N(C)CN(c2cc(NC(=O)c4cccc(C(F)(F)F)c4)ccc2C)C3)n(C)n1 [IA-11, N-(3-(7-((1,3-dimethyl-1H-pyrazol-5-yl)amino)-1-methyl-1,4-dihydropyrimido[4,5-d]pyrimidin-3(2H)-yl)-4-methylphenyl)-3-(trifluoromethyl)benzamide] | 0.927 | 1.39 | 2.28 | 2.22 | 0.736 | 13.5 | 0.00796 | 1.76 | 1.02 | 1.49
2 | Cc1ccc(Nc2ncc3c(n2)N(C2CC2)CN(c2cc(NC(=O)c4cccc(C(F)(F)F)c4)ccc2C)C3)cn1 [IB-2, N-(3-(1-cyclopropyl-7-((6-methylpyridin-3-yl)amino)-1,4-dihydropyrimido[4,5-d]pyrimidin-3(2H)-yl)-4-methylphenyl)-3-(trifluoromethyl)benzamide] | 1.2 | 2.09 | 2.16 | 3.13 | 1.09 | 6.03 | 0.0538 | 2.9 | 1.41 | 1.78
3 | Cc1ccc(NC(=O)c2cccc(C(F)(F)F)c2)cc1N1Cc2cnc(Nc3ccc(N4CCOCC4)nc3)nc2N(C)C1 [IA-15, N-(4-methyl-3-(1-methyl-7-((6-morpholinopyridin-3-yl)amino)-1,4-dihydropyrimido[4,5-d]pyrimidin-3(2H)-yl)phenyl)-3-(trifluoromethyl)benzamide] | 0.264 | 0.68 | 0.902 | 1.16 | 0.355 | 1.77 | 0.00418 | 0.132 | 0.404 | 0.388
4 | Cc1ccc(NC(=O)c2cccc(C(F)(F)F)c2)cc1N1Cc2cnc(NCCN3CCOCC3)nc2N(C)C1 [IA-5, N-(4-methyl-3-(1-methyl-7-((2-morpholinoethyl)amino)-1,4-dihydropyrimido[4,5-d]pyrimidin-3(2H)-yl)phenyl)-3-(trifluoromethyl)benzamide] | 2.14 |  |  | 4.05 | 3.24 | 6.3 | 1.72 | 2.92 | 3.29 | 3.44
5 | Cc1ccc(Nc2ncc3c(n2)N(C)CN(c2cc(C(=O)NCCN4CCOCC4)ccc2C)C3)cn1 [IC-3, 4-methyl-3-(1-methyl-7-((6-methylpyridin-3-yl)amino)-1,4-dihydropyrimido[4,5-d]pyrimidin-3(2H)-yl)-N-(2-morpholinoethyl)benzamide] | > 10 |  |  | > 10 | > 10 | > 10 | 0.217 | > 10 | > 10 | > 10
6 | Cc1ccc(NC(=O)c2cccc(C(F)(F)F)c2)cc1N1Cc2cnc(NC3CC3)nc2N(C)C1 [IA-4, N-(3-(7-(cyclopropylamino)-1-methyl-1,4-dihydropyrimido[4,5-d]pyrimidin-3(2H)-yl)-4-methylphenyl)-3-(trifluoromethyl)benzamide] | 1.32 |  |  | 6.79 | 4.97 | 11.3 | 0.956 | 9.72 | 9.56 | 8.33
